According to US20260139254A1, “INTERFERING RNA FOR INHIBITING TOP1 GENE EXPRESSION AND USE THEREOF” (JENKEM TECHNOLOGY CO., LTD. (BEIJING), priority 2022, published 2026):

Tests used:
Assay type in all cases: cell-based, human
TOP1 mRNA [1] = test: Inhibitory effect of siTOP1 on TOP1 mRNA in A375 cells (Lipofectamine RNAiMAX transfection, Q-PCR); conditions: A375, siRNA 50 nM, 48 h after transfection; for Relative expression level of gene, mean value: Blank = 100.00, GAPDH reference
Experimental: • 1) On the day before transfection, A375 melanoma cells were seeded into a 24-well plate at 6×10^4 to 8×10^4 cells/well, the culture medium being 500 μL of DMEM containing 10% FBS and 1% Penicillin-Streptomycin, and the plate was placed in an incubator with 5% CO2 at 37° C. for 24 h to allow the cells to adhere to the wall. Three replicate wells were made for each group. • 2) On the day of transfection, the culture medium was changed to 450 μL of DMEM culture medium without antibiotics (containing 10% FBS). • 3) The siRNAs were diluted with 25 μL of Opti-MEM culture medium; the siNC (the siNC (reference: O Sordet et al., 2008) having the target sequence of 5′-TTCTCCGAACGTGTCACGT-3′ (SEQ ID NO: 46)) at the same concentration was the negative control group; Lipofectamine™ RNAiMAX (Lipo) transfection reagent was diluted with another 25 μL of Opti-MEM culture medium and left to stand at room temperature for 5 min; and the two dilutions were uniformly mixed and left to stand at room temperature for 5 min. • 4) 50 μL of the mixed solution described above was added to each well to obtain a final transfection volume of 500 μL. and the working concentration of the siRNA was 50 nM. • 5) After the transfection, the cells were cultured for 48 h and then collected.
• 1) RNA was extracted using an Eastep™ Super total RNA extraction kit; 300 μL of RNA lysis solution and 300 μL of RNA diluent were added; and the mixture was uniformly mixed and then transferred to a 1.5 mL centrifuge tube. • 2) The mixture was centrifuged at 14000 g for 5 min, and the supernatant was carefully pipetted into a new 1.5 mL centrifuge tube. • 3) A 0.5-fold volume of absolute ethanol was added, and the mixture was uniformly mixed by allowing the tube to be repeatedly upside down 15-20 times. Subsequently, the mixture was transferred to a centrifuge column and centrifuged at 12000 g for 1 min. The filtrate was discarded. • 4) 600 μL of RNA wash buffer was added, and the mixture was centrifuged at 12000 g for 1 min. The filtrate was discarded. • 5) 50 μL of DNase I incubation buffer was added, followed by DNA digestion at room temperature for 15 min. • 6) 600 μL of RNA wash buffer was added, the mixture was centrifuged at 12000 g for 1 min, and the filtrate was discarded. This procedure was repeated once. • 7) The mixture was centrifuged at 14000 g for 2 min to remove the residual RNA wash buffer, and then the centrifuge column was placed in a collection tube. • 8) An appropriate amount of RNase-free H2O was added, and the mixture was left to stand at room temperature for 12 min and centrifuged at 14000 g for 1 min. The collected RNA was preserved at −70° C. for later use.
• 1) The mass and concentration of the RNA were detected using NanoDrop™, and an RNA template was prepared as follows: RNase-free H2O was added to 1 μg of RNA to a volume of 10 μL; the mixture was placed at 70° C. for 5 min and then placed in an ice bath for 5 min for later use. • 2) A reaction system was established according to Table 2:
• 3) The reaction system described above was uniformly mixed and centrifuged to collect the liquid at the bottom of a tube, and the mixture was subjected to the procedures of 25° C. for 5 min, 42° C. for 60 min, and 72° C. for 15 min, thereby giving the cDNA product. • 4) A Q-PCR system was prepared according to Table 3, and the level of TOP1 gene was detected:
GAPDH was used as an endogenous reference, and the sequences of the primers used for detection are as follows: […]

A375 melanoma cells = test: Inhibition of A375 cell proliferation by siTOP1 (CCK-8); conditions: A375, siRNA 50 nM, 72 h
Experimental: • 1) On the day before transfection, A375 melanoma cells were seeded into a 96-well plate at 2500-3000 cells/well, the culture medium being a total volume of 200 μL of DMEM culture medium containing 7.5% FBS and 1% Penicillin-Streptomycin, and the plate was placed in an incubator with 5% CO2 at 37° C. for 24 h to allow the cells to adhere to the wall. 5 replicate wells were made for each group. • 2) On the day of transfection, the culture medium was changed to 90 μL of reduced serum culture medium without antibiotics and containing 7.5% FBS. • 3) The siRNAs were diluted with an appropriate amount of Opti-MEM culture medium; Lipofectamine™ RNAiMAX (Lipo) transfection reagent was diluted with another appropriate amount of Opti-MEM culture medium and left to stand at room temperature for 5 min; and the two dilutions were uniformly mixed and left to stand at room temperature for 5 min. • 4) 10 μL of the mixed solution described above was added to each well to obtain a final transfection volume of 100 μL, and the working concentration of the siRNA was 50 nM. • 5) The cells were cultured in the incubator with 5% CO2 at 37° C. for 72 h.
After 72 h of transfection, 10 μL of CCK-8 solution was added to each well, and the cells were cultured in the incubator with 5% CO2 at 37° C. for another 4 h. The absorbance value at 450 nm was measured using a microplate reader. Cell viability was calculated according to the following formula: […]

TOP1 mRNA [2] = test: Inhibitory effects of modified sequences of siTOP1-1604 on TOP1 mRNA in PC-3 cells; conditions: PC-3, siRNA 50 nM, 48 h after transfection, Blank = 100.00
Experimental: PC-3 human prostate cancer cells were transfected with the modified siTOP1 according to the method in Example 2 at a siRNA working concentration of 50 nM. TOP1 mRNA levels were detected 48 h after the transfection. The control groups were Blank (Opti-MEM at the equal volume), Lipofectamine™ RNAiMAX (Lipo) transfection reagent, and the positive control unmodified siTOP-1604.

Substance | Relative expression level of gene, mean value (TOP1 mRNA [1]) | Inhibition of TOP1 expression (TOP1 mRNA [1]) | also measured
siTOP1-267: siRNA targeting TOP1; target SEQ ID NO: 1, sense strand SEQ ID NO: 16, antisense strand SEQ ID NO: 31 (sense CAACGAUUCCCAGAUCGAAUU; antisense UUCGAUCUGGGAAUCGUUGUU; modified_base 20..21 OTHER; thymine) | 21.85 | – | Cell viability (%), mean value (A375 melanoma cells): 58.27%; Inhibition of A375 cell proliferation compared to Blank (A375 melanoma cells): about 42%
siTOP1-628: siRNA targeting TOP1; target SEQ ID NO: 2, sense strand SEQ ID NO: 17, antisense strand SEQ ID NO: 32 (sense CCUCCUAAAGAGGAUAUAAUU; antisense UUAUAUCCUCUUUAGGAGGUU; modified_base 20..21 OTHER; thymine) | 24.27 | – | –
siTOP1-896: siRNA targeting TOP1; target SEQ ID NO: 3, sense strand SEQ ID NO: 18, antisense strand SEQ ID NO: 33 (sense GGAAAUUCCUAGAACAUAAUU; antisense UUAUGUUCUAGGAAUUUCCUU; modified_base 20..21 OTHER; thymine) | 13.05 | – | –
siTOP1-1261: siRNA targeting TOP1; target SEQ ID NO: 4, sense strand SEQ ID NO: 19, antisense strand SEQ ID NO: 34 (sense GGAUUCUGUAUUAUGGAUAUU; antisense UAUCCAUAAUACAGAAUCCUU; modified_base 20..21 OTHER; thymine) | 17.75 | – | –
siTOP1-1282: siRNA targeting TOP1; target SEQ ID NO: 5, sense strand SEQ ID NO: 20, antisense strand SEQ ID NO: 35 (sense CACAAAGAGAGGAUUGCUAUU; antisense UAGCAAUCCUCUCUUUGUGUU; modified_base 20..21 OTHER; thymine) | 6.64 | 93.4% | –
siTOP1-1357: siRNA targeting TOP1; target SEQ ID NO: 6, sense strand SEQ ID NO: 21, antisense strand SEQ ID NO: 36 (sense GGCAUGCUGAAGAGACGAAUU; antisense UUCGUCUCUUCAGCAUGCCUU; modified_base 20..21 OTHER; thymine) | 19.62 | – | –
siTOP1-1459: siRNA targeting TOP1; target SEQ ID NO: 7, sense strand SEQ ID NO: 22, antisense strand SEQ ID NO: 37 (sense CGGCAUGAUAACAAGGUUAUU; antisense UAACCUUGUUAUCAUGCCGUU; modified_base 20..21 OTHER; thymine) | 9.89 | 90.1% | –
siTOP1-1530: siRNA targeting TOP1; target SEQ ID NO: 8, sense strand SEQ ID NO: 23, antisense strand SEQ ID NO: 38 (sense GCUUAACCCUAGUUCACGAUU; antisense UCGUGAACUAGGGUUAAGCUU; modified_base 20..21 OTHER; thymine) | 9.44 | 90.6% | –
siTOP1-1604-m1: Methylation-modified siTOP1-1604; sense strand SEQ ID NO: 51, antisense strand SEQ ID NO: 52 (sense GUGUGGACAAGAUCCGGAATT; antisense UUCCGGAUCUUGUCCACACTT; DNA at T, 2'-O-methyl at CU, RNA at AG, backbone not given here) | – | – | Relative expression level, mean value (TOP1 mRNA [2]): 71.77
siTOP1-1630: siRNA targeting TOP1; target SEQ ID NO: 10, sense strand SEQ ID NO: 25, antisense strand SEQ ID NO: 40 (sense CGAGAAGACUGGAAGUCCAUU; antisense UGGACUUCCAGUCUUCUCGUU; modified_base 20..21 OTHER; thymine) | 17.34 | – | Cell viability (%), mean value (A375 melanoma cells): 43.84%; Inhibition of A375 cell proliferation compared to Blank (A375 melanoma cells): about 56%
siTOP1-1679: siRNA targeting TOP1; target SEQ ID NO: 11, sense strand SEQ ID NO: 26, antisense strand SEQ ID NO: 41 (sense CCCUGUACUUCAUCGACAAUU; antisense UUGUCGAUGAAGUACAGGGUU; modified_base 20..21 OTHER; thymine) | 8.86 | 91.1% | –
siTOP1-1776: siRNA targeting TOP1; target SEQ ID NO: 12, sense strand SEQ ID NO: 27, antisense strand SEQ ID NO: 42 (sense GCACAUCAAUCUACACCCAUU; antisense UGGGUGUAGAUUGAUGUGCUU; modified_base 20..21 OTHER; thymine) | 7.41 | 92.6% | –
siTOP1-2273: siRNA targeting TOP1; target SEQ ID NO: 13, sense strand SEQ ID NO: 28, antisense strand SEQ ID NO: 43 (sense AGGAUGCAAAGACGAAGAAUU; antisense UUCUUCGUCUUUGCAUCCUUU; modified_base 20..21 OTHER; thymine) | 12.54 | – | –
siTOP1-2585: siRNA targeting TOP1; target SEQ ID NO: 14, sense strand SEQ ID NO: 29, antisense strand SEQ ID NO: 44 (sense GGUUUGGGAAAGAUGGAUAUU; antisense UAUCCAUCUUUCCCAAACCUU; modified_base 20..21 OTHER; thymine) | 8.84 | 91.2% | –
siTOP1-2898: siRNA targeting TOP1; target SEQ ID NO: 15, sense strand SEQ ID NO: 30, antisense strand SEQ ID NO: 45 (sense CGAUUAUAUUGGUGCGUUUUU; antisense AAACGCACCAAUAUAAUCGUU; modified_base 20..21 OTHER; thymine) | 7.05 | 93.0% | –
